The subject of this assay is P. aeruginosa strains 762, PA14 and ATCC 27853. Put plainly: Pulmonary P. aeruginosa infection of CF and CerS2 null mice, inhalation treatment (bacteria in lung, sickness score). The format is in vivo, mouse. As to conditions: CF and CerS2 null mice; inhalation (125 μM) 1 h before or 1 h after intranasal infection with 1×10^8 CFU. As for the experimental part:
(A,B) The number of bacteria in the lungs and the overall sickness score (C,D) of WT, CerS2 null and CF mice 3-4 h after intranasal infection with 1×10^8 CFU of P. aeruginosa strains 762 (A,C) and CF mice with strains PA14 and ATCC 27853. Mice were inhaled with 0.9% NaCl or acid ceramidase 1 h prior (b.i.) to infection, or with sphingosine or FTY720 1 h before (b.i.) or 1 h after (a.i.) infection. Sickness score 4, severely affected (unresponsive animal); score 3 affected, (heavy breathing, low body temperature, ruffled fur) score 2, moderately affected (ruffled fur, heavy breathing); score 1, slightly affected (ruffled fur); score 0, unaffected (healthy appearance). Data are means±s.d., n=4.
Pulmonary infection of CF or CerS2 mice was achieved by intranasal application of P. aeruginosa strains 762, ATCC 27853 or PA14. Mice inhaled acid ceramidase, sphingosine, FTY720 or a combination of sphingosine and ceramide 1 hr before or after pulmonary infection. The number of bacteria in the lung was determined by culturing aliquots of lysed lungs on agar plates. Clinical symptoms of the infection were scored.
Inhalation was performed with a PARI Boy SX nebulizer (PARI GmbH, Starnberg, Germany). This nebulizer generates a fine aerosol mist by pumping the fluid with an air jet. The mice inhaled the aerosol via a mask that is part of an oral inhalation device for children (LL-Nebulizer); the mask was clipped at the sides to cover only the mouse's nose and the surrounding part of the face. […]
P. aeruginosa were grown for 14 to 14.5 h on fresh tryptic soy agar (TSA) plates (Becton Dickinson Biosciences, Germany). […] The bacterial OD was determined, and the bacteria were diluted in prewarmed H/S to a concentration of 1×10^8 CFU per 20 μL. […]
Lungs were removed, homogenised and lysed for 10 min in 5 mg/ml saponin to release intracellular bacteria. […] Bacterial counts (CFU) were counted after 18 h.

“Also recorded” adds a separate entry of the source.

The values below come from patent US20150258043A1, “USE OF SPHINGOID LONG CHAIN BASES AND THEIR ANALOGS IN TREATING AND PREVENTING BACTERIAL INFECTIONS” (YEDA RESEARCH AND DEVELOPMENT CO. LTD., priority 2012, published 2015).

On to `CCCCCCCCCCCCC/C=C/[C@@H](O)[C@@H](N)CO` (stereo in doubt) [D-erythro-Sphingosine, (2S,3R)-2-aminooctadec-4-ene-1,3-diol], for which the “protection from pulmonary P. aeruginosa infection” value was “completely protected CF and CerS2 null mice from P. aeruginosa infection and even eliminated an existing infection; also recorded: rescue CF and CerS2 null mice from pulmonary P. aeruginosa infection; also recorded: prevents pulmonary P. aeruginosa infection”.
